# Measured values taken from the supplement of paper PMC10307832.
# Tests used:
# Experiment in all cases: relative viability (nuclei count vs DMSO), 5 days (fraction); higher = more cells survive
# [1] = compound: C1CCC(CC1)N(CCNCCC2=C3C(=C(C=C2)O)NC(=O)CO3)C(=O)CCNCCC4=CC(=C(C=C4)Cl)Cl [AZ505] + CC(=O)Nc1cccc(-n2c(=O)n(C3CC3)c(=O)c3c(Nc4ccc(I)cc4F)n(C)c(=O)c(C)c32)c1 [Trametinib] (partner 0.02 µM)
# Procedure, shortened: (§1)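 Relative viability divides the nuclei count in treated wells by that in vehicle wells. Lung cancer cell lines were seeded in 1536-well plates, dosed by pin tool the next day, and fixed and stained after 5 days in one step with final 0.05% Triton X-100, 1% formaldehyde and 1 ug/ml Hoechst. Dosing was a single drug or a fixed anchor-drug dose plus five library-drug doses (not always all listed) in √10 steps, and values are medians of duplicate plates imaged at 4×.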
# [2] = compound: C1CCC(CC1)N(CCNCCC2=C3C(=C(C=C2)O)NC(=O)CO3)C(=O)CCNCCC4=CC(=C(C=C4)Cl)Cl [AZ505] + CC1(C)CCC(c2ccc(Cl)cc2)=C(CN2CCN(c3ccc(C(=O)NS(=O)(=O)c4ccc(N[C@H](CCN5CCOCC5)CSc5ccccc5)c(S(=O)(=O)C(F)(F)F)c4)cc3)CC2)C1 [Navitoclax] (partner 0.5 µM)
# Procedure, shortened: as §1
# [3] = compound: C1CCC(CC1)N(CCNCCC2=C3C(=C(C=C2)O)NC(=O)CO3)C(=O)CCNCCC4=CC(=C(C=C4)Cl)Cl [AZ505] + C[C@]1(O)C[C@@H](c2nc(-c3ccc4ccc(-c5ccccc5)nc4c3)c3c(N)nccn32)C1 [Linsitinib] (partner 1 µM)
# Procedure, shortened: as §1
# [4] = compound: C1CCC(CC1)N(CCNCCC2=C3C(=C(C=C2)O)NC(=O)CO3)C(=O)CCNCCC4=CC(=C(C=C4)Cl)Cl [AZ505] + CC(=O)c1c(C)c2cnc(Nc3ccc(N4CCNCC4)cn3)nc2n(C2CCCC2)c1=O [Palbociclib] (partner 0.5 µM)
# Procedure, shortened: as §1
Cell Line,relative viability ([1]; first compound 0.253 µM),relative viability ([1]; first compound 0.8 µM),relative viability ([1]; first compound 2.53 µM),relative viability ([1]; first compound 8 µM),relative viability ([2]; first compound 0.08 µM),relative viability ([2]; first compound 0.253 µM),relative viability ([2]; first compound 0.8 µM),relative viability ([2]; first compound 2.53 µM),relative viability ([2]; first compound 8 µM),relative viability ([3]; first compound 0.08 µM),relative viability ([3]; first compound 0.253 µM),relative viability ([3]; first compound 0.8 µM),relative viability ([3]; first compound 2.53 µM),relative viability ([3]; first compound 8 µM),relative viability ([4]; first compound 0.08 µM),relative viability ([4]; first compound 0.253 µM),relative viability ([4]; first compound 0.8 µM),relative viability ([4]; first compound 2.53 µM),relative viability ([4]; first compound 8 µM),relative viability ([1]; first compound 0.08 µM)
H3255,0.604,0.543,0.578,0.611,0.439,0.526,0.529,0.698,0.615,0.836,1,0.918,0.983,0.929,0.292,0.31,0.301,0.298,0.302,
NCI-H1792,0.426,0.482,0.422,0.435,0.61,0.637,0.592,0.653,0.719,0.552,0.652,0.424,0.509,0.577,0.642,,0.619,0.612,0.696,0.426
SK-MES-1,0.531,0.532,0.508,0.584,1.13,1.19,1.29,1.14,1.31,0.89,0.922,0.97,0.879,1.03,0.31,0.316,0.26,0.294,0.32,0.513
NCI-H2087,0.257,0.221,0.281,0.219,1.01,0.975,1.05,0.989,0.873,0.986,0.846,0.986,0.932,0.973,0.225,0.27,0.312,0.22,0.197,0.171
HCC-366,0.331,0.281,0.289,0.332,1.03,0.948,1.02,1.12,1.06,0.534,0.552,0.672,0.599,0.678,0.361,0.491,0.326,0.402,0.384,0.288
NCI-H727,0.411,0.365,0.391,0.358,0.501,0.461,0.471,0.428,0.483,0.388,0.24,0.272,0.427,0.275,0.598,0.687,0.625,0.552,0.674,0.418
LU99A,0.51,0.531,,0.498,0.745,0.814,0.839,0.894,0.749,0.524,0.647,0.507,0.573,0.565,0.363,0.447,0.403,,0.367,0.518
NCI-H647,0.509,0.404,0.379,0.467,1.02,1.22,1.14,0.97,1.32,1.08,1.36,1.04,1.29,1.22,0.362,0.461,0.387,0.429,0.432,0.478
HCC-78,,0.594,0.701,0.653,,0.852,0.832,0.919,0.818,,0.642,0.571,0.619,0.7,0.452,0.409,0.4,0.435,0.434,
NCI-H1755,0.785,0.749,0.741,0.746,0.949,1.06,0.967,1.01,0.971,0.968,0.984,0.924,0.985,0.974,0.42,0.46,0.434,0.441,0.442,0.728
NCI-H3122,0.258,0.215,0.27,0.267,1,1.02,1.03,1.02,1,0.963,1.03,0.911,1.01,0.967,0.212,0.228,0.18,0.19,0.197,0.211
PC-14,0.884,0.76,0.747,0.786,0.999,1.07,0.974,0.95,0.997,0.88,0.948,0.922,0.881,0.951,0.402,0.439,0.456,0.471,0.595,0.711
NCI-H2347,0.258,0.263,0.247,0.254,0.434,0.549,0.564,0.482,0.631,0.6,0.603,0.668,0.543,0.714,0.37,0.451,0.38,0.448,0.485,0.332
NCI-H2228,0.374,0.441,0.49,0.429,0.889,0.978,0.692,0.716,0.612,0.418,0.651,0.53,0.549,0.49,0.554,0.723,0.69,0.768,0.918,0.311
NCI-H1793,0.372,0.416,0.428,0.434,0.352,0.405,0.455,0.396,0.428,0.766,0.769,0.932,1.03,1.06,0.293,0.271,0.3,0.307,0.347,0.382
EKVX,0.326,0.321,0.414,0.397,0.84,0.961,0.986,0.994,1.03,0.963,1.15,0.951,1.04,1.06,,0.365,0.378,0.372,0.389,
